Residues, ends and D or L forms follow the SMILES beside them.
Columns and labels:
[1] = target: Glucagon-like peptide 1 receptor (Homo sapiens, UniProt P43220); test: Agonist activity at GLP1R expressed in HEK293 cells assessed as stimulation of cAMP production by luciferase reporter gene assay; type: functional, cell-based
Glucagon receptor = Glucagon receptor (Homo sapiens, UniProt P47871); test: Agonist activity at GCGR expressed in HEK293 cells assessed as stimulation of cAMP production by luciferase reporter gene assay; type: functional, cell-based
Glucagon receptor, sequence (P47871 whole entry): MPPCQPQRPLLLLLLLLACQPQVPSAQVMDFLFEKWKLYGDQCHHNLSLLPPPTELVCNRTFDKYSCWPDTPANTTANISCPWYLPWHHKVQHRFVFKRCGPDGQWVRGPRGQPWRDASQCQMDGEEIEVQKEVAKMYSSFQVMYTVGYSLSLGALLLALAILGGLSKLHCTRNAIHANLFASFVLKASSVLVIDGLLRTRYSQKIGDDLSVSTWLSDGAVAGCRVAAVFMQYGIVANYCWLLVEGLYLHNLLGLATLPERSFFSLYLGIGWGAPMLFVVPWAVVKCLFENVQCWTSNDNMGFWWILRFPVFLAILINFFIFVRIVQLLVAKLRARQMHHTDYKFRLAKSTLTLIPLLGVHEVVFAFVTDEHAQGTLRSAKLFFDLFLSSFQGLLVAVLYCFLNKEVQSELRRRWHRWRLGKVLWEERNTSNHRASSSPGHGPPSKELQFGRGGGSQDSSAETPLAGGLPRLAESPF

Glucagon-like peptide 1 receptor, sequence (P43220 whole entry): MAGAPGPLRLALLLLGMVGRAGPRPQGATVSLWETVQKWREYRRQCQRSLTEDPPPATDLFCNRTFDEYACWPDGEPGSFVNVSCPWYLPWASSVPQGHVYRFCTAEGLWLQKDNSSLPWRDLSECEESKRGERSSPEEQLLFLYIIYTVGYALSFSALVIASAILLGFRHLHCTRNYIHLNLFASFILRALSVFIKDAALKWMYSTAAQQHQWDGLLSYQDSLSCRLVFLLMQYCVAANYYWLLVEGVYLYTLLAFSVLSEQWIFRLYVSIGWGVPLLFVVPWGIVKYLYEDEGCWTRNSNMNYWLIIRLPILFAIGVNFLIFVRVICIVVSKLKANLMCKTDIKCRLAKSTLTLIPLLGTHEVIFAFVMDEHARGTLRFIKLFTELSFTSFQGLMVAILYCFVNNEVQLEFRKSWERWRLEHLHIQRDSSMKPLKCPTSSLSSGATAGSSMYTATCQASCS

| SMILES | EC50 [1] [nM] | EC50 (Glucagon receptor) [nM] | EC50 ([1]; hek293) [nM] | EC50 (Glucagon receptor; hek293) [nM] |
| --- | --- | --- | --- | --- |
| CC[C@H](C)[C@H](NC(=O)[C@H](Cc1ccccc1)NC(=O)[C@H](CCC(=O)O)NC(=O)[C@H](CCCCN)NC(=O)[C@H](C)NC(=O)[C@H](C)NC(=O)[C@H](CCC(=O)O)NC(=O)[C@H](CCC(=O)O)NC(=O)[C@H](CCC(=O)O)NC(=O)[C@H](CC(C)C)NC(=O)[C@H](Cc1ccc(O)cc1)NC(=O)[C@H](CO)NC(=O)[C@H](CO)NC(=O)[C@@H](NC(=O)[C@H](CC(=O)O)NC(=O)[C@H](CO)NC(=O)[C@@H](NC(=O)[C@H](Cc1ccccc1)NC(=O)[C@@H](NC(=O)CNC(=O)[C@H](CCC(=O)O)NC(=O)[C@H](C)N[C@@H](Cc1cnc[nH]1)C(=O)O)[C@@H](C)O)[C@@H](C)O)C(C)C)C(=O)N[C@@H](C)C(=O)N[C@@H](Cc1c[nH]c2ccccc12)C(=O)N[C@@H](CC(C)C)C(=O)N[C@H](C(=O)N[C@@H](CCCCN)C(=O)NCC(=O)N[C@@H](CCN=C(N)N)C(N)=O)C(C)C | 0.011 | > 1000 |  |  |
| CSCC[C@H](NC(=O)[C@H](CC(C)C)NC(=O)[C@H](Cc1c[nH]c2ccccc12)NC(=O)[C@H](CCC(N)=O)NC(=O)[C@@H](NC(=O)[C@H](Cc1ccccc1)NC(=O)[C@H](CC(=O)O)NC(=O)[C@H](CCC(N)=O)NC(=O)[C@H](C)NC(=O)[C@H](CCCNC(=N)N)NC(=O)[C@H](CCCNC(=N)N)NC(=O)[C@H](Cc1c[nH]cn1)NC(=O)[C@H](CC(=O)O)NC(=O)[C@H](CC(C)C)NC(=O)[C@H](Cc1ccc(O)cc1)NC(=O)[C@H](CCCCN)NC(=O)[C@H](CO)NC(=O)[C@H](Cc1ccc(O)cc1)NC(=O)[C@H](CC(=O)O)NC(=O)[C@H](CO)NC(=O)[C@@H](NC(=O)[C@H](Cc1ccccc1)NC(=O)[C@@H](NC(=O)CNC(=O)[C@H](CCC(N)=O)NC(=O)[C@H](CO)N[C@@H](Cc1cnc[nH]1)C(=O)O)[C@@H](C)O)[C@@H](C)O)C(C)C)C(=O)N[C@@H](CC(N)=O)C(=O)N[C@H](C(N)=O)[C@@H](C)O | 0.23 | 0.1 |  |  |
| CSCC[C@H](NC(=O)[C@H](CC(C)C)NC(=O)[C@H](Cc1c[nH]c2ccccc12)NC(=O)[C@H](CCC(N)=O)NC(=O)[C@@H](NC(=O)[C@H](Cc1ccccc1)NC(=O)[C@H](CC(=O)O)NC(=O)[C@@H]1CCCCNC(=O)CC[C@H](NC(=O)[C@H](CC(=O)O)NC(=O)[C@H](CC(C)C)NC(=O)[C@H](Cc2ccc(O)cc2)NC(=O)[C@H](CCCCN)NC(=O)[C@H](CO)NC(=O)[C@H](Cc2ccc(O)cc2)NC(=O)[C@H](CC(=O)O)NC(=O)[C@H](CO)NC(=O)[C@@H](NC(=O)[C@H](Cc2ccccc2)NC(=O)[C@@H](NC(=O)CNC(=O)[C@H](CCC(N)=O)NC(=O)[C@H](CO)N[C@@H](Cc2cnc[nH]2)C(=O)O)[C@@H](C)O)[C@@H](C)O)C(=O)N[C@@H](CCCNC(=N)N)C(=O)N[C@@H](CCCNC(=N)N)C(=O)N[C@@H](C)C(=O)N1)C(C)C)C(=O)N[C@@H](CC(N)=O)C(=O)N[C@H](C(=O)O)[C@@H](C)O | 0.049 | 0.058 |  |  |

Next, values leading:

| EC50 [1] [nM] | EC50 (Glucagon receptor) [nM] | EC50 ([1]; hek293) [nM] | EC50 (Glucagon receptor; hek293) [nM] | SMILES |
| --- | --- | --- | --- | --- |
|  |  | 0.026 | 0.068 | CC[C@H](C)[C@H](NC(=O)[C@H](Cc1ccccc1)NC(=O)[C@H](CCC(=O)O)NC(=O)[C@H](CCCCN)NC(=O)[C@H](C)NC(=O)[C@H](C)NC(=O)[C@H](CCC(N)=O)NC(=O)[C@H](CCC(=O)O)NC(=O)[C@H](CC(=O)O)NC(=O)[C@H](CC(C)C)NC(=O)[C@H](Cc1ccc(O)cc1)NC(=O)[C@H](CCCCN)NC(=O)[C@H](CO)NC(=O)[C@H](Cc1ccc(O)cc1)NC(=O)[C@H](CC(=O)O)NC(=O)[C@H](CO)NC(=O)[C@@H](NC(=O)[C@H](Cc1ccccc1)NC(=O)[C@@H](NC(=O)CNC(=O)[C@H](CCC(N)=O)NC(=O)[C@H](CO)NC(=O)[C@@H](N)Cc1cnc[nH]1)[C@@H](C)O)[C@@H](C)O)C(=O)N[C@@H](C)C(=O)N[C@@H](Cc1c[nH]c2ccccc12)C(=O)N[C@@H](CC(C)C)C(=O)N[C@@H](CCSC)C(=O)N[C@@H](CC(N)=O)C(=O)N[C@H](C(=O)O)[C@@H](C)O (H-HSQGTFTSDYSKYLDEQAAKEFIAWLMNT-OH) |
| 0.068 | 0.073 |  |  | CC[C@H](C)[C@H](NC(=O)[C@H](Cc1ccccc1)NC(=O)[C@H](CC(=O)O)NC(=O)[C@H](CCCCN)NC(=O)[C@H](C)NC(=O)[C@H](CCCNC(=N)N)NC(=O)[C@H](CCCNC(=N)N)NC(=O)[C@H](CCC(=O)O)NC(=O)[C@H](CC(=O)O)NC(=O)[C@H](CC(C)C)NC(=O)[C@H](Cc1ccc(O)cc1)NC(=O)[C@H](CCCCN)NC(=O)[C@H](CO)NC(=O)[C@H](Cc1ccc(O)cc1)NC(=O)[C@H](CC(=O)O)NC(=O)[C@H](CO)NC(=O)[C@@H](NC(=O)[C@H](Cc1ccccc1)NC(=O)[C@@H](NC(=O)CNC(=O)[C@H](CCC(N)=O)NC(=O)[C@H](CO)N[C@@H](Cc1cnc[nH]1)C(=O)O)[C@@H](C)O)[C@@H](C)O)C(=O)N[C@@H](CCC(N)=O)C(=O)N[C@@H](Cc1c[nH]c2ccccc12)C(=O)N[C@@H](CC(C)C)C(=O)N[C@@H](CCSC)C(=O)N[C@@H](CC(N)=O)C(=O)N[C@H](C(=O)N[C@H](C(N)=O)[C@@H](C)O)[C@@H](C)O |
|  |  | 0.18 | 50 | CSCC[C@H](NC(=O)[C@H](CC(C)C)NC(=O)[C@H](Cc1c[nH]c2ccccc12)NC(=O)[C@H](CCC(N)=O)NC(=O)[C@@H](NC(=O)[C@H](Cc1ccccc1)NC(=O)[C@H](CC(=O)O)NC(=O)[C@H](CCC(N)=O)NC(=O)[C@H](C)NC(=O)[C@H](CCCNC(=N)N)NC(=O)[C@H](CCCNC(=N)N)NC(=O)[C@H](CCC(=O)O)NC(=O)[C@H](CCC(=O)O)NC(=O)[C@H](CC(C)C)NC(=O)[C@H](Cc1ccc(O)cc1)NC(=O)[C@H](CO)NC(=O)[C@H](CO)NC(=O)[C@@H](NC(=O)[C@H](CC(=O)O)NC(=O)[C@H](CO)NC(=O)[C@@H](NC(=O)[C@H](Cc1ccccc1)NC(=O)[C@@H](NC(=O)CNC(=O)[C@H](CCC(=O)O)NC(=O)[C@H](C)NC(=O)[C@@H](N)Cc1cnc[nH]1)[C@@H](C)O)[C@@H](C)O)C(C)C)C(C)C)C(=O)N[C@@H](CC(N)=O)C(=O)N[C@H](C(=O)O)[C@@H](C)O (H-HAEGTFTSDVSSYLEERRAQDFVQWLMNT-OH) |
| 0.6 | 0.15 |  |  | CSCC[C@H](NC(=O)[C@H](CC(C)C)NC(=O)[C@H](Cc1c[nH]c2ccccc12)NC(=O)[C@H](CCC(N)=O)NC(=O)[C@@H](NC(=O)[C@H](Cc1ccccc1)NC(=O)[C@H](CC(=O)O)NC(=O)[C@H](CCC(N)=O)NC(=O)[C@H](C)NC(=O)[C@H](CCCNC(=N)N)NC(=O)[C@H](CCCNC(=N)N)NC(=O)[C@H](CO)NC(=O)[C@H](CC(=O)O)NC(=O)[C@H](CC(C)C)NC(=O)[C@H](Cc1ccc(O)cc1)NC(=O)[C@H](CCCCN)NC(=O)[C@H](CO)NC(=O)[C@H](Cc1ccc(O)cc1)NC(=O)[C@H](CC(=O)O)NC(=O)[C@H](CO)NC(=O)[C@@H](NC(=O)[C@H](Cc1ccccc1)NC(=O)[C@@H](NC(=O)CNC(=O)[C@H](CCC(N)=O)NC(=O)[C@H](CO)N[C@@H](Cc1cnc[nH]1)C(=O)O)[C@@H](C)O)[C@@H](C)O)C(C)C)C(=O)N[C@@H](CC(N)=O)C(=O)N[C@H](C(N)=O)[C@@H](C)O |
